Assay results reported in patent publication US12605382B2, “Pharmaceutical composition for preventing, alleviating, or treating cancer containing 2,6-dichloro-4-(4-(4-hydroxycyclohexylamino)-7H- pyrrolo[2,3-d]pyrimidin-5-yl)phenol as active ingredient” (JBKLAB CO., LTD., priority 2021, dated 2026).

Legend:
SK Hep1 = assay: Cell viability alone and in combination with sorafenib; type: cell-based, Human
Procedure: (§1) Human liver cancer cell lines (SK Hep1 and Huh-7) were treated with control (no treatment), 0.1 μM of the compound of Example 1, 1 μM of sorafenib, and 0.1 μM of the compound of Example 1/1 μM of sorafenib, and the cell viability of SK Hep1 and Huh-7 was confirmed.

Huh-7 = assay: as above; type: cell-based, Human
Procedure: as §1

PD-L1 = assay: Immunocytochemistry (IHC) analysis of tumor tissue, 4T1 allograft model; type: in vivo, BALB/c mice
From the text: (§2) In order to evaluate changes in the expression of proteins such as BRD4 and HIF-1α, the tumor cells isolated in Example 10 were subjected to immunocytochemistry (IHC) analysis to evaluate the changes in protein expression in the tumor microenvironment according to the treatment method.
(§3) Specifically, tumor tissue was extracted, fixed in 4% paraformaldehyde, and embedded in paraffin to create blocks. The paraffin block containing the tissue was sliced transversely to a thickness of 4 μm and attached to a slide. Paraffin was removed from the tissue attached to the slide using xylene and ethanol, and endogenous peroxidase was removed from the tissue by immersing the slide in a solution of 3% H2O2 in methanol for 10 minutes at room temperature. Then, for antigen retrieval, the slide was placed in 0.01 M sodium citrate buffer (pH 6.0) and boiled. In order to eliminate non-specific binding, FcR on the cell surface was blocked using 5% normal goat serum. Then, the slide was incubated overnight at 4° C. with primary antibodies (HIF-1a (SantaCruz, sc-13515), PD-L1 (Abcam, ab2025921), CD8 (Abcam, ab203035), and CD68 (CellSignaling, 97778)). Secondary antibodies were attached and color development was induced using ImmPRESSGoat Anti-Rat IgG (Mouse Adsorbed) Polymer kit (Vector Laboratories), Abcam (ab150165, ab150081), and REAL En Visiondetection system (Dako). The stained tissue was observed under an Axioskop40 optical microscope (Carl Zeiss) at 40× magnification, and the images were saved using AxioVision4.7 software. The expression level was measured through the area of the stained region in the photograph using Image J software (NIH, Bethesda). Average density values were calculated from at least three slides per sample.

HIF-1α = assay: as above; type: in vivo, BALB/c mice
From the text: as §2, §3

Brd4 = assay: as above; type: in vivo, BALB/c mice
From the text: as §2, §3

CD8+ T cells [1] = assay: as above; type: in vivo, BALB/c mice
From the text: as §2, §3

CD68+ macrophages = assay: as above; type: in vivo, BALB/c mice
From the text: as §2, §3

[2] = tested on: 4T1 murine triple negative breast cancer cells; assay: Lung metastasis in triple-negative breast cancer allograft mouse model; type: in vivo, BALB/c mice; details: 31st day
Procedure: 4T1 murine triple negative breast cancer cells (6×10^5 cells) were injected into the hind limbs of 6-week-old immune-competent BALB/c mice. Seven days after injection, after confirming consistent tumor growth, 10 mice from each group were selected and used in subsequent experiments.
The experimental groups consisted of a control group (no treatment), a radiotherapy group, a group treated with the compound of Example 1, and a group treated with a combination of the compound of Example 1 and radiotherapy. Each treatment was carried out for 31 days after tumor implantation.
Radiation treatment was performed using electron beams, and a total of 24 Gy was irradiated three times, once every two days for one week (Days 10, 12, and 14) (8 Gy×3). The compound of Example 1 was administered intravenously at a dose of 10 mg/kg once every 2 or 3 days (Days 10, 12, 14, 17, 19, and 21) for a total of 6 times over 2 weeks. On the days when radiation therapy and drug administration were conducted simultaneously, the compound of Example 1 was administered after confirming that the mice had recovered from anesthesia 4 hours after radiation therapy.
Mice were prepared in the same manner as in Example 8, and the lungs of the mice were removed on the 31st day after tumor injection, and the results of observing lung metastasis are shown in FIG. 13.

MDA-MB-453 = assay: Cell viability, breast cancer cell line; type: cell-based; details: MDA-MB-453, 24 hours, dose dependently
Procedure: FIGS. 4A-4C show the cell viability of MDA-MB-231, MDA-MB-453, and BT-20 after 24 hours of treatment with the compound of Example 1. As shown in FIGS. 4A-4C, it was confirmed that the cell viability was suppressed not only in general breast cancer cell lines, but also in TNBC cell lines dose dependently.

SK-MEL-2 = assay: Cytotoxicity on cancer cell lines; type: cell-based; details: SK-MEL-2, dose dependently
Procedure: (§4) The cytotoxicity of the compound of Example 1 against various cancer cell lines was evaluated through a process similar to the evaluation of liver cancer cell line inhibition described above. Etoposide, sold as an anticancer agent, was used as a control group drug.

HCT15 = assay: Cytotoxicity on cancer cell lines; type: cell-based; details: HCT15, dose dependently
Procedure: as §4

SK-OV-3 = assay: Cytotoxicity on cancer cell lines; type: cell-based; details: SK-OV-3, dose dependently
Procedure: as §4

A549 = assay: Cytotoxicity on cancer cell lines; type: cell-based; details: A549, dose dependently
Procedure: as §4

M2 TAM = assay: Flow cytometric analysis (FACS) of tumor tissue, 4T1 allograft model; type: in vivo, BALB/c mice
Procedure: (§5) The tumor tissues from each mouse were subjected to single cell isolation, followed by flow cytometric analysis (FACS) to confirm the immunomodulatory effect.
(§6) Specifically, the spleen and tumor of the mouse were extracted 31 days after tumor cell injection in the same manner as in Example 8. After the tumor tissue was excised, it was mechanically processed by fine chopping using a sterilized razor blade, and then treated with DNase (0.1 mg/ml) and collagenase (1 mg/ml), respectively, and reacted at 36° C. for 30 minutes to obtain a single cell suspension. To analyze infiltrating leukocytes after isolation of single cells from the tumor tissue, […] cells per FACS tube were stained with FITC, PE, PerCP/Cy5.5, and APC fluorescence using CD3 antibody, CD8b antibody, CD4 antibody, CD11b antibody, F4/80 antibody, and CD206 antibody. For each stained sample, the fraction of CD8+ cytotoxic T cells was calculated using BD Bioscience FACSCalibur machines. Analysis of the FACS results was performed using FlowJo software, version 10.

M1 TAM = assay: as above; type: in vivo, BALB/c mice
Procedure: as §5, §6

CD8+ T cells [3] = assay: as above; type: in vivo, BALB/c mice; details: 31 days
Procedure: as §5, §6

[4] = 0.1 μM Example 1 combined with 1 μM sorafenib

Oc1c(Cl)cc(-c2c[nH]c3ncnc(N[C@H]4CC[C@H](O)CC4)c23)cc1Cl [Example 1, (trans)-2,6-dichloro-4-(4-(4-hydroxycyclohexylamino)-7H-pyrrolo[2,3-d]pyrimidin-5-yl)phenol]
cell viability (SK Hep1; [4]): further inhibited (synergistic effect) | cell viability (SK Hep1; 0.1 μM alone): suppressed | cell viability (Huh-7; [4]): further inhibited (synergistic effect) | cell viability (Huh-7; 0.1 μM alone): suppressed | expression of PD-L1 (PD-L1): significantly (P<0.01) decreased | HIF-1α expression in tumor tissue (HIF-1α): significantly (P<0.05) reduced | Brd4 expression in tumor tissue (Brd4): significantly (P<0.001) reduced | population of CD8+ T cells (CD8+ T cells [1]; alone): increased | population of CD8+ T cells (CD8+ T cells [1]; combined with radiation): further increased (synergistic effect) | population of CD68+ macrophages in tumor tissue (CD68+ macrophages): significantly (P<0.01) reduced | lung metastasis compared to control group ([2]; alone, 10 mg/kg intravenously): significantly reduced metastasis | lung metastases compared to each administration alone ([2]; combined with radiation (8 Gy×3)): significantly (P<0.05) reduced lung metastases | cell viability (MDA-MB-453): suppressed | toxicity to cancer cell line (SK-MEL-2): excellent toxicity | toxicity to cancer cell line (HCT15): excellent toxicity | toxicity to cancer cell line (SK-OV-3): excellent toxicity | toxicity to cancer cell line (A549): excellent toxicity | M2 TAM (M2 TAM; alone): significantly (P<0.01) decreased | M2 TAM (M2 TAM; combined with radiation): decrease | M1 TAM (M1 TAM; alone): significantly (P<0.01) increased | M1 TAM (M1 TAM; combined with radiation): increase | proportion of CD8+ T cells in tumor (CD8+ T cells [3]; alone): increased | proportion of CD8+ T cells in tumor compared to each administration alone (CD8+ T cells [3]; combined with radiation): significantly increased
